Source: patent US9980943B2, “Methods of treating muscular dystrophy” (BOARD OF REGENTS OF THE NEVADA SYSTEM OF HIGHER EDUCATION, …, priority 2013, dated 2018)

Tests used:
Assay type in all cases: cell-based, mouse
[1] = test system: α7 integrin (LacZ reporter in α7+/LacZ myotubes); assay: Myotube α7 integrin FDG assay (Burkin assay in myotubes, 96-well); conditions: myotubes
[2] = test system: α7 integrin (LacZ reporter in α7βgal+/− myoblasts); assay: Myoblast α7+/LacZ integrin FDG assay (Burkin assay in myoblasts, 96-well); conditions: α7+/LacZ myoblasts, 96-well
[3] = test system: β-galactosidase in CMV-LacZ C2C12 myotubes; assay: CMV-LacZ secondary screen in C2C12 myotubes (β-Gal stabilizing assay); conditions: for CMV-LACZ in Myotubes, signal relative to DMSO: C2C12 CMV-LacZ myotubes, fold relative to DMSO; for CMV-LACZ in Myotubes (β-galactosidase activity relative to DMSO): CMV-LacZ C2C12 myotubes, 96-well format
Outline: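 Dose-response runs at 0.5–40 μM (0.5, 1, 5, 10, 20, 40 μM; N=2 per point) used a clonal C2C12 line carrying CMV-LacZ. Cells were assayed as myoblasts or as differentiated myotubes, and β-galactosidase levels were read with the FDG fluorogenic substrate.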

SMILES	CMV-LACZ in Myotubes, signal relative to DMSO ([3]; 5 uM)	CMV-LACZ in Myotubes, signal relative to DMSO ([3]; 10 uM)	CMV-LACZ in Myotubes, signal relative to DMSO ([3]; 20 uM)	CMV-LACZ in Myotubes, signal relative to DMSO ([3]; 40 uM)	Burkin Assay in Myotubes (signal relative to DMSO) ([1]; 0.5 uM)	Burkin Assay in Myotubes (signal relative to DMSO) ([1]; 1 uM)	Burkin Assay in Myotubes (signal relative to DMSO) ([1]; 5 uM)	Burkin Assay in Myotubes (signal relative to DMSO) ([1]; 10 uM)	Burkin Assay in Myotubes (signal relative to DMSO) ([1]; 20 uM)	Burkin Assay in Myotubes (signal relative to DMSO) ([1]; 40 uM)	Burkin Assay in Myoblasts, value relative to DMSO ([2]; 0.5 uM)	Burkin Assay in Myoblasts, value relative to DMSO ([2]; 1 uM)	Burkin Assay in Myoblasts, value relative to DMSO ([2]; 5 uM)	Burkin Assay in Myoblasts, value relative to DMSO ([2]; 10 uM)	Burkin Assay in Myoblasts, value relative to DMSO ([2]; 20 uM)	Burkin Assay in Myoblasts, value relative to DMSO ([2]; 40 uM)	CMV-LACZ in Myotubes (β-galactosidase activity relative to DMSO) ([3]; 5 uM)	CMV-LACZ in Myotubes (β-galactosidase activity relative to DMSO) ([3]; 10 uM)	CMV-LACZ in Myotubes (β-galactosidase activity relative to DMSO) ([3]; 20 uM)	CMV-LACZ in Myotubes (β-galactosidase activity relative to DMSO) ([3]; 40 uM)	other results
CCCCN(CCCC)CCNC(=O)c1cn(C)c2ccc(S(=O)(=O)N(C)C3CCCCC3)cc2c1=O [MLS000913117-01]	0.8036	0.8262	0.5938	0.6538	–	–	–	–	–	–	–	–	–	–	–	–	–	–	–	–	Burkin Assay in Myotubes, α7 integrin LacZ reporter signal relative to DMSO ([1]; 0.5 uM): 1.09; Burkin Assay in Myotubes, α7 integrin LacZ reporter signal relative to DMSO ([1]; 1 uM): 1.208; Burkin Assay in Myotubes, α7 integrin LacZ reporter signal relative to DMSO ([1]; 5 uM): 0.9655; Burkin Assay in Myotubes, α7 integrin LacZ reporter signal relative to DMSO ([1]; 10 uM): 0.6623; Burkin Assay in Myotubes, α7 integrin LacZ reporter signal relative to DMSO ([1]; 20 uM): 0.495; Burkin Assay in Myotubes, α7 integrin LacZ reporter signal relative to DMSO ([1]; 40 uM): 0.3911; Burkin Assay in Myoblasts, signal relative to DMSO ([2]; 0.5 uM): 0.9085; Burkin Assay in Myoblasts, signal relative to DMSO ([2]; 1 uM): 0.9155; Burkin Assay in Myoblasts, signal relative to DMSO ([2]; 5 uM): 0.9138; Burkin Assay in Myoblasts, signal relative to DMSO ([2]; 10 uM): 0.6729; Burkin Assay in Myoblasts, signal relative to DMSO ([2]; 20 uM): 0.1952; Burkin Assay in Myoblasts, signal relative to DMSO ([2]; 40 uM): 0.05713
CC(=O)c1cccc(NC(=O)C2CCCN(S(=O)(=O)c3cccc4nonc34)C2)c1 (centres unmarked) [MLS000937079-01]	–	–	–	–	1.0515	0.6372	0.9756	0.8882	1.142	0.9197	1.163	0.8958	1.053	1.147	1.028	0.9956	1.087	0.9923	0.9641	0.9682	–
O=C(COC(=O)Cn1cnc2ccccc21)Nc1cccc([N+](=O)[O-])c1 [MLS001005283-01]	0.9005	0.9051	1.032	1.1425	–	–	–	–	–	–	–	–	–	–	–	–	–	–	–	–	Burkin Assay in Myotubes, α7 integrin LacZ reporter signal relative to DMSO ([1]; 0.5 uM): 0.9811; Burkin Assay in Myotubes, α7 integrin LacZ reporter signal relative to DMSO ([1]; 1 uM): 0.9951; Burkin Assay in Myotubes, α7 integrin LacZ reporter signal relative to DMSO ([1]; 5 uM): 0.8583; Burkin Assay in Myotubes, α7 integrin LacZ reporter signal relative to DMSO ([1]; 10 uM): 0.9141; Burkin Assay in Myotubes, α7 integrin LacZ reporter signal relative to DMSO ([1]; 20 uM): 0.9432; Burkin Assay in Myotubes, α7 integrin LacZ reporter signal relative to DMSO ([1]; 40 uM): 0.7596; Burkin Assay in Myoblasts, signal relative to DMSO ([2]; 0.5 uM): 0.8702; Burkin Assay in Myoblasts, signal relative to DMSO ([2]; 1 uM): 0.8582; Burkin Assay in Myoblasts, signal relative to DMSO ([2]; 5 uM): 0.9346; Burkin Assay in Myoblasts, signal relative to DMSO ([2]; 10 uM): 0.8908; Burkin Assay in Myoblasts, signal relative to DMSO ([2]; 20 uM): 0.8965; Burkin Assay in Myoblasts, signal relative to DMSO ([2]; 40 uM): 0.9301
O=C(NC1CCCC1)c1ccc(CS(=O)(=O)Cc2ccccc2F)o1 [MLS001030746-01]	–	–	–	–	1.047	0.9692	1.031	0.9496	0.9886	1.067	0.9195	0.8373	1.069	1.073	0.9338	0.9637	0.9791	0.8757	1.098	0.9912	–
COc1ccc(CNC(=O)COC(=O)CCc2c[nH]c3ccccc23)cc1 [MLS001033202-01]	0.9658	0.9933	0.8214	1.2	–	–	–	–	–	–	–	–	–	–	–	–	–	–	–	–	Burkin Assay in Myotubes, α7 integrin LacZ reporter signal relative to DMSO ([1]; 0.5 uM): 1.057; Burkin Assay in Myotubes, α7 integrin LacZ reporter signal relative to DMSO ([1]; 1 uM): 1.019; Burkin Assay in Myotubes, α7 integrin LacZ reporter signal relative to DMSO ([1]; 5 uM): 1.042; Burkin Assay in Myotubes, α7 integrin LacZ reporter signal relative to DMSO ([1]; 10 uM): 1.0906; Burkin Assay in Myotubes, α7 integrin LacZ reporter signal relative to DMSO ([1]; 20 uM): 1.051; Burkin Assay in Myotubes, α7 integrin LacZ reporter signal relative to DMSO ([1]; 40 uM): 0.986; Burkin Assay in Myoblasts, signal relative to DMSO ([2]; 0.5 uM): 0.6682; Burkin Assay in Myoblasts, signal relative to DMSO ([2]; 1 uM): 0.9153; Burkin Assay in Myoblasts, signal relative to DMSO ([2]; 5 uM): 0.9952; Burkin Assay in Myoblasts, signal relative to DMSO ([2]; 10 uM): 0.9282; Burkin Assay in Myoblasts, signal relative to DMSO ([2]; 20 uM): 0.8408; Burkin Assay in Myoblasts, signal relative to DMSO ([2]; 40 uM): 0.7704
O=C(Nc1ccc(N2CCN(C(=O)c3ccccc3F)CC2)cc1)c1cncc(Br)c1 [MLS001060533-01]	–	–	–	–	0.9464	1.208	1.318	1.52	1.342	1.117	0.9049	0.9915	1.033	1.101	1.397	1.22	0.8358	0.7789	0.7716	0.6871	–
O=C(Nc1ccc(Cl)cc1N1CCOCC1)C1CCCCC1 [MLS001060549-01]	1.322	0.8952	0.8814	1.075	0.8181	1.071	0.9783	1.111	0.9391	0.9134	1.056	1.204	1.012	1.072	0.7731	0.9411	–	–	–	–	–
O=C(c1ccc(Cl)c(S(=O)(=O)N2CCCCC2)c1)N1CCN(Cc2ccccc2)CC1 [MLS001060561-01]	–	–	–	–	0.8047	0.9329	0.9832	0.9977	0.8557	0.9329	0.9961	0.9284	0.8266	0.8878	0.795	0.6318	0.9396	1.002	0.9373	0.6425	–
